Consider 21 compounds from ChEMBL document CHEMBL4651402, “Screening of ~5500 FDA-approved drugs and clinical candidates for anti-SARS-CoV-2 activity” (2021).

Each structure is given as a SMILES string.

In this test the test system is SARS-CoV-2. Put plainly: microbe, parasite or virus in culture. As to conditions: Severe acute respiratory syndrome coronavirus 2, Vero C1008, 48 h.

With `NC1CCCCC1N` (configuration not stated), the IC50 was above 20 µM. Further, the IC50 (read-out: pIC50 (converted)) was above 20 µM.
With `CC(=O)N[C@H]1[C@H]([C@H](O)[C@H](O)CO)O[C@](O)(C(=O)O)C[C@@H]1O`, the IC50 is above 50.1 µM. The IC50 (read-out: pIC50 (converted)) was above 50.1 µM.
Consider `CC1CCC(C(C)C)C(=O)C1` (configuration not stated), for which the IC50 is above 20 µM. The IC50 (read-out: pIC50 (converted)) is above 20 µM.
`N[C@H](Cn1ccc(=O)c(O)c1)C(=O)O` showed an IC50 above 20 µM. Moreover, the IC50 (read-out: pIC50 (converted)) is above 20 µM.
Compound `C=CCC(N)c1ccccc1-c1noc2ccccc12` (configuration not stated) displayed an IC50 above 20 µM. In addition, the IC50 (read-out: pIC50 (converted)) is above 20 µM.
Compound `COc1cc2c(cc1Cc1cccc(Cl)c1F)c(=O)c(C(=O)O)cn2[C@@H](CO)C(C)C` registered an IC50 above 20 µM. The IC50 (read-out: pIC50 (converted)) is above 20 µM.
On to `Nc1ccc(F)cc1NC(=O)c1ccc(CNC(=O)/C=C/c2cccnc2)cc1`, for which the IC50 is above 20 µM. The IC50 (read-out: pIC50 (converted)) is above 20 µM.
As for `C=C(C)C1CC=C(CO)CC1` (configuration not stated), the IC50 is above 20 µM. Also, for the setting “read-out: pIC50 (converted)”, the IC50 is above 20 µM.
Compound `CC1=C(O)C(=O)C=C2C1=CC=C1C3(C)CC[C@@]4(C)CC[C@@](C)(C(=O)O)C[C@H]4[C@]3(C)CC[C@@]21C` (some centres not stated) came in with an IC50 above 20 µM. Also, the IC50 (read-out: pIC50 (converted)) was above 20 µM.
As to `CC(=O)[C@H]1CC[C@H]2[C@@H]3CCC4C[C@@H](O)CC[C@]4(C)[C@H]3CC[C@]12C` (some centres not stated), the IC50 is above 20 µM. Besides, the IC50 (read-out: pIC50 (converted)) was above 20 µM.
For the compound `Cc1cn2nc([C@H]3CCCCN3C(=O)c3cc(Cl)ccc3NS(C)(=O)=O)cc2nc1N1CC[C@H](N)C1`, the IC50 is above 20 µM. The IC50 (read-out: pIC50 (converted)) is above 20 µM.
The compound `CC[N@@+]1(C)[C@@H]2CC[C@H]1C[C@@H](OC(=O)[C@]1(c3ccccc3)CC[C@H](C(=O)O[C@H]3C[C@H]4CC[C@@H](C3)[N@+]4(C)CC)c3ccccc31)C2` displayed an IC50 above 20 µM. For the same compound, the IC50 (read-out: pIC50 (converted)) is above 20 µM.
With `NCCC(O)C(=O)N[C@@H]1C[C@H](N)[C@@H](OC2O[C@H](CN)[C@@H](O)[C@H](O)[C@H]2N)[C@H](OC2O[C@H](CO)C(O)[C@H]2O)[C@H]1O` (some centres not stated), the IC50 was above 20 µM. The IC50 (read-out: pIC50 (converted)) was above 20 µM.
In turn, `C=C1[C@@H]2CC[C@H]3[C@]4(C)C[C@H](O[C@H]5O[C@H](CO)[C@@H](OS(=O)(=O)O)[C@H](OS(=O)(=O)O)[C@H]5OC(=O)CC(C)C)C[C@@H](C(=O)O)[C@H]4CC[C@]3(C2)[C@H]1O` returned an IC50 above 20 µM. Also, the IC50 (read-out: pIC50 (converted)) is above 20 µM.
The compound `C[C@@H]1CCC2[C@H](C)C3CC[C@@]4(O)[C@@H]5CC(=O)[C@H]6CC(=O)CC[C@]6(C)C5C[C@H]4[C@@H]3CN2C1` (some centres not stated) had an IC50 above 20 µM. Where the note is “read-out: pIC50 (converted)”, the IC50 is above 20 µM.
`CCN1C[C@]2(COC)CC[C@H](OC)[C@]34[C@@H]5C[C@H]6[C@H](OC)[C@@H]5[C@@]5(C[C@@H]6OC)OCO[C@@]5([C@H]13)[C@@H](O)[C@H]24`: the IC50 is above 20 µM. The IC50 (read-out: pIC50 (converted)) was above 20 µM.
With `CO[C@H]1C[C@@H]2CC[C@@H](C)[C@@](O)(O2)C(=O)C(=O)N2CCCC[C@H]2C(=O)O[C@H]([C@H](C)C[C@@H]2CC[C@H](n3cnnn3)[C@H](OC)C2)CC(=O)[C@H](C)/C=C(/C)[C@@H](O)[C@@H](OC)C(=O)[C@H](C)C[C@H](C)\C=C/C=C\C=C/1C`, the IC50 is above 20 µM. Where the note is “read-out: pIC50 (converted)”, the IC50 is above 20 µM.
`CC(C)OC(=O)[C@@H](C)NP(=O)(OC[C@H]1O[C@@H](n2ccc(=O)[nH]c2=O)[C@](C)(O)[C@@H]1O)Oc1ccccc1` (some centres not stated) showed an IC50 above 20 µM. The IC50 (read-out: pIC50 (converted)) was above 20 µM.
The compound `Cc1cn(Cc2ccc(Cl)cc2Cl)c2c(/C=C/C(=O)NS(=O)(=O)c3cc(Cl)c(Cl)s3)cc(F)cc12` displayed an IC50 above 20 µM. The IC50 (read-out: pIC50 (converted)) is above 20 µM.
On to `CCOc1ccccc1O[C@@H](c1ccccc1)[C@H]1CNCCO1`, for which the IC50 is above 20 µM. Besides, the IC50 (read-out: pIC50 (converted)) was above 20 µM.
Compound `CC(C)(C)C(=O)Oc1ccc(S(=O)(=O)Nc2ccccc2C(=O)NCC(=O)O)cc1` displayed an IC50 above 20 µM. Further, the IC50 (read-out: pIC50 (converted)) is above 20 µM.
